Test results from patent US20210284638A1 (Saint Louis University, priority 2018, published 2021).
pIC50: −log10 of the molar value. Where a name gives a salt, the structure may show the parent alone.

Assays:
[1] = target: T1, Recombinant human integrin αVβ5 (Homo sapiens, UniProt P06756+P18084); test: Solid Phase Receptor Assay (SPRA) for αVβ5 function; assay type: binding; settings: plate-bound human vitronectin
T1 construct: purchased R&D Systems 2528-AV
Procedure: D. Solid Phase Receptor Assay (SPRA) for αVβ5 Function
(§1) Wells were washed 3 times with 150 μL TBS+ and then 150 μL of blocking buffer (TBS+ with 1% bovine serum albumin, Sigma A7906) was added. The plate was incubated for 1 hr at 37° C. and then washed 3× with TBS+ buffer. […] Compounds were diluted to 20 μM and then 1 μL was added to each well of the plate according to a standard template with each sample repeated in triplicate. After incubation for two hours at room temperature, the plate was washed 3× with 150 μL of TBS+ buffer. To each well, 50 μl of biotinylated anti-αV antibody (R&D Systems, BAF1219) at 0.5 μg/mL in TBS+/0.1% BSA at 0.5 μg/mL were added and the plate covered and incubated for 1 hr at room temperature. After washing the plate 3× with 150 μL of TBS+ buffer, 50 μL of streptavidin-conjugated horseradish peroxidase (R&D Systems, DY998) diluted in TBS+ blocking buffer were added to the wells and the plate incubated for 20 min at room temperature. The plate was washed 3× with TBS+ buffer followed by 50 μL of TMB substrate (Sigma T4444) added to each well in the dark and the plate incubated for 5 min at room temperature. 25 μL of 1.0 M phosphoric acid was added as a stop solution and the plates were read at 450 nm using a Spectramax plate reader.

[2] = target: T2, Recombinant human integrin αVβ6 (Homo sapiens, UniProt P06756+P18564); test: Solid Phase Receptor Assay (SPRA) for αVβ6 function; assay type: binding; settings: plate-bound human LAP
T2 construct: purchased R&D Systems 3817-AV
T2 sequence (P06756 31-992 limits assumed): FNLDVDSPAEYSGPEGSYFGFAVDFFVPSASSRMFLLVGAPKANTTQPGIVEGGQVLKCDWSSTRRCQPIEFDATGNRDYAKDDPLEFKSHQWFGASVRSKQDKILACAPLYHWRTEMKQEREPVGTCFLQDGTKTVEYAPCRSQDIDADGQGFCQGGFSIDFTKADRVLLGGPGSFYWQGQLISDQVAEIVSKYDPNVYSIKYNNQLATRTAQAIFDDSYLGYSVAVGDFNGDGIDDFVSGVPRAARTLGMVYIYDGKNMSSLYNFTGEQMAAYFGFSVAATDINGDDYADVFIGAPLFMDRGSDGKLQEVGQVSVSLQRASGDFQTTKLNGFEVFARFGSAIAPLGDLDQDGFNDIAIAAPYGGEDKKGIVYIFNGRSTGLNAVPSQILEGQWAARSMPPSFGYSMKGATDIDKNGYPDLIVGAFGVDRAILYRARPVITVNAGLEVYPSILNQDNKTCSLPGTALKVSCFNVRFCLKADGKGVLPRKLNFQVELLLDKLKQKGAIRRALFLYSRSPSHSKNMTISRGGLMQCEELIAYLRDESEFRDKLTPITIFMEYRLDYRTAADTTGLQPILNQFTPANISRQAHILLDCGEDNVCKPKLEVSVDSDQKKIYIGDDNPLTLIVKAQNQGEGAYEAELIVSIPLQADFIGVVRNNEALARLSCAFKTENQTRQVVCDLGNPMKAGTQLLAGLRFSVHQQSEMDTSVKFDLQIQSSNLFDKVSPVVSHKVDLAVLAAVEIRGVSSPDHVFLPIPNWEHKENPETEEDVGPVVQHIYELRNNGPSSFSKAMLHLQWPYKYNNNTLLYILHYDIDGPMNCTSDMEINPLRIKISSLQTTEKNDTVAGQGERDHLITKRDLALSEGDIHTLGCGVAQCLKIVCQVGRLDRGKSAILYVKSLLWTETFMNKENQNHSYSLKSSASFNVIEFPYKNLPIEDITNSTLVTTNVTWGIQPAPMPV
T2 sequence (P18564 22-707 limits assumed): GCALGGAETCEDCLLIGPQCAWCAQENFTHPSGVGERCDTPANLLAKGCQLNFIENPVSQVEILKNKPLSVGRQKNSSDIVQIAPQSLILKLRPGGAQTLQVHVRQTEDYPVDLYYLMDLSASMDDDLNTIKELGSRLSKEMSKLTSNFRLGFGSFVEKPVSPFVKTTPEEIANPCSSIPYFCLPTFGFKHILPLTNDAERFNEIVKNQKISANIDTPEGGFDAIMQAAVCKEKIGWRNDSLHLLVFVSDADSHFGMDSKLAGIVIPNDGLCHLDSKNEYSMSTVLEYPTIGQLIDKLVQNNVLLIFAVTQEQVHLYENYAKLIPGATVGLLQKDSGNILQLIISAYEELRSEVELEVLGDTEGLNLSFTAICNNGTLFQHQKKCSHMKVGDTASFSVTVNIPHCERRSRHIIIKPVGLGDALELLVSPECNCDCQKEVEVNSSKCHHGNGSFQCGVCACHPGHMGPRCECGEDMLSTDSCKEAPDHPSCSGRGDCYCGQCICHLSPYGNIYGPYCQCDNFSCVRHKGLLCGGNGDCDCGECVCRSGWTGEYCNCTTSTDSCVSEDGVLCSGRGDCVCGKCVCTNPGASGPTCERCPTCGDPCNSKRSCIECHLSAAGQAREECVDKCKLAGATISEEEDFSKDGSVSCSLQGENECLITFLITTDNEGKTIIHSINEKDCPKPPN
Procedure: E. Solid Phase Receptor Assay (SPRA) for αVβ6 Function
as §1, with “150 μL TBS+, and then” for “150 μL TBS+ and then”, “at 37° C., and then” for “at 37° C. and then”, “well, 50 μL of biotinylated” for “well, 50 μl of biotinylated”, “TBS+/0.1% BSA were added” for “TBS+/0.1% BSA at 0.5 μg/mL were added”, “the plate was covered and” for “the plate covered and”, “incubated for 10 min at” for “incubated for 5 min at”

T1 sequence (P06756 31-992 limits assumed): as the sequence (P06756 31-992 limits assumed) above
T1 sequence (P18084 24-719 limits assumed): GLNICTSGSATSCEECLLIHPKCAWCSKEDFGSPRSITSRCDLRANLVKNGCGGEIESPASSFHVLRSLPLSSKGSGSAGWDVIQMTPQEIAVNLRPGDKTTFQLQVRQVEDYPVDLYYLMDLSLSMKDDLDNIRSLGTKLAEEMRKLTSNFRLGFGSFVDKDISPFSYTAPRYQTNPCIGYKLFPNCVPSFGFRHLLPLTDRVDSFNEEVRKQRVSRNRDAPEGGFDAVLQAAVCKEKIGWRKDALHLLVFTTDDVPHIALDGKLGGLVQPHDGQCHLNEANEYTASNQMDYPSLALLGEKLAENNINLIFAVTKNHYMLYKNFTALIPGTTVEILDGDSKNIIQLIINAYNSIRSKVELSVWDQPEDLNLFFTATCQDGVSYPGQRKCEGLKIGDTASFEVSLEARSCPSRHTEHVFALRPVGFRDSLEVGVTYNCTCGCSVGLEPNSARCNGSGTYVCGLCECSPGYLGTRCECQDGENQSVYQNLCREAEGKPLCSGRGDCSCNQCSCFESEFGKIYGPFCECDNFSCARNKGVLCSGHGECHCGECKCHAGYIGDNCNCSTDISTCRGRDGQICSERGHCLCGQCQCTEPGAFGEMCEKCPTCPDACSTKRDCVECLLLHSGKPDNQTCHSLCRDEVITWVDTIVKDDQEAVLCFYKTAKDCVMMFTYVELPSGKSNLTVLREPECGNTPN

Compound | pIC50 [1] | pIC50 [2]
COc1ccc(C2COC2)cc1C(CC(=O)O)Cc1cc(OCCc2ccc3c(n2)NCCC3)n(C)n1 (centres unmarked) [Example 23, 3-[2-methoxy-5-(oxetan-3-yl)phenyl]-4-[1-methyl-5-[2-(5,6,7,8-tetrahydro-1,8-naphthyridin-2-yl)ethoxy]pyrazol-3-yl]butanoic acid] | 7.54 | 6.85
COc1ccc(C2=CCOCC2)cc1[C@@H](CC(=O)O)Cc1csc(CCCc2ccc3c(n2)NCCC3)n1 [Example 37B, (R)-3-(5-(3,6-dihydro-2H-pyran-4-yl)-2-methoxyphenyl)-4-(2-(3-(5,6,7,8-tetrahydro-1,8-naphthyridin-2-yl)propyl)thiazol-4-yl)butanoic acid trifluoroacetate] | 7.21 | 5.52
Cn1nc(CC(CC(=O)O)c2cc(Br)cc(S(F)(F)(F)(F)F)c2)cc1OCCc1ccc2c(n1)NCCC2 (centres unmarked) [Example 3, 3-[3-bromo-5-(pentafluoro-sulfanyl)phenyl]-4-[1-methyl-5-[2-(5,6,7,8-tetrahydro-1,8-naphthyridin-2-yl)ethoxy]pyrazol-3-yl]butanoic acid] | 8.70 | 7.27
COc1cc(C(CC(=O)O)Cc2cc(OCCc3ccc4c(n3)NCCC4)n(C)n2)cc(C23CC4CC(CC(C4)C2)C3)c1OCc1ccccc1 (centres unmarked) [Example 13, 3-[3-(1-adamantyl)-4-benzyloxy-5-methoxy-phenyl]-4-[1-methyl-5-[2-(5,6,7,8-tetrahydro-1,8-naphthyridin-2-yl)ethoxy]pyrazol-3-yl]butanoic acid] | 6.85 | 6.77
Cn1nc(CC(CC(=O)O)c2cc(C(C)(C)C)ccc2F)cc1OCCc1ccc2c(n1)NCCC2 (centres unmarked) [Example 19, 3-(5-(tert-butyl)-2-fluorophenyl)-4-(1-methyl-5-(2-(5,6,7,8-tetrahydro-1,8-naphthyridin-2-yl)ethoxy)-1H-pyrazol-3-yl)butanoic acid] | 9.22 | 6.74
Cn1nc(CC(CC(=O)O)c2cc3c(c(C(C)(C)C)c2)OCO3)cc1OCCc1ccc2c(n1)NCCC2 (centres unmarked) [Example 15] | 9.70 | 7.22
COc1c(C(C)C)cc(C(CC(=O)O)Cc2cc(OCCc3ccc4c(n3)NCCC4)n(C)n2)cc1C(C)C (centres unmarked) [Example 25, 3-(3,5-diisopropyl-4-methoxy-phenyl)-4-[1-methyl-5-[2-(5,6,7,8-tetrahydro-1,8-naphthyridin-2-yl)ethoxy]pyrazol-3-yl]butanoic acid] | 7.11 | 6.80
COc1ccc(C2CCOCC2)cc1C(CC(=O)O)Cc1csc(CCCc2ccc3c(n2)NCCC3)n1 (centres unmarked) [Example 43, 3-(2-methoxy-5-(tetrahydro-2H-pyran-4-yl)phenyl)-4-(2-(3-(5,6,7,8-tetrahydro-1,8-naphthyridin-2-yl)propyl)thiazol-4-yl)butanoic acid] | 7.21 | 7.02
O=C(O)CC(Cc1cc(OCCc2ccc3c(n2)NCCC3)[nH]n1)c1cccc(F)c1 (centres unmarked) [CC2, reference compound] | 9.70 | 7.27
COc1ccc(C(F)(F)F)cc1C(CC(=O)O)Cc1csc(CCCc2ccc3c(n2)NCCC3)n1 (centres unmarked) [Example 35, 3-[2-methoxy-5-(trifluoromethyl)phenyl]-4-[2-[3-(5,6,7,8-tetrahydro-1,8-naphthyridin-2-yl)propyl]thiazol-4-yl]butanoic acid] | 7.16 | 6.70
COc1cc(C(CC(=O)O)Cc2cc(OCCc3ccc4c(n3)NCCC4)n(C)n2)cc(C23CC4CC(CC(C4)C2)C3)c1OC (centres unmarked) [Example 14, 3-[3-(1-adamantyl)-4,5-dimethoxy-phenyl]-4-[1-methyl-5-[2-(5,6,7,8-tetrahydro-1,8-naphthyridin-2-yl)ethoxy]pyrazol-3-yl]butanoic acid] | 8.05 | 6.77
COc1c(C(C)(C)C)cc(C(CC(=O)O)Cc2cc(OCCc3ccc4c(n3)NCCC4)n(C)n2)cc1C(C)(C)C (centres unmarked) [Example 10, 3-(3,5-di-tert-butyl-4-methoxyphenyl)-4-(1-methyl-5-(2-(5,6,7,8-tetrahydro-1,8-naphthyridin-2-yl)ethoxy)-1H-pyrazol-3-yl)butanoic acid] | 7.08 | 6.89
Cn1nc(CC(CC(=O)O)c2cc(C(C)(C)C)cc(C(C)(C)C#N)c2)cc1OCCc1ccc2c(n1)NCCC2 (centres unmarked) [Example 9, 3-[3-tert-butyl-5-(1-cyano-1-methyl-ethyl)phenyl]-4-[1-methyl-5-[2-(5,6,7,8-tetrahydro-1,8-naphthyridin-2-yl)ethoxy]pyrazol-3-yl]butanoic acid] | 7.49 | 6.82
Cc1cc(C)n(-c2cccc(C(CC(=O)O)Cc3csc(CCc4ccc5c(n4)NCCC5)n3)c2)n1 (centres unmarked) [Example 38, 3-(3-(3,5-dimethyl-1H-pyrazol-1-yl)phenyl)-4-(2-(2-(5,6,7,8-tetrahydro-1,8-naphthyridin-2-yl)ethyl)thiazol-4-yl)butanoic acid] | 9.15 | 6.62
CC(C)(C)c1cc(C(CC(=O)O)Cc2cc(OCCc3ccc4c(n3)NCCC4)n(CC(F)(F)F)n2)cc(C(C)(C)C)c1 (centres unmarked) [Example 40, 3-(3,5-di-tert-butylphenyl)-4-(5-(2-(5,6,7,8-tetrahydro-1,8-naphthyridin-2-yl)ethoxy)-1-(2,2,2-trifluoroethyl)-1H-pyrazol-3-yl)butanoic acid trifluoroacetate] | 6.74 | 6.10
CC(C)(C)c1cc(C(CC(=O)O)Cc2csc(CCCc3ccc4c(n3)NCCC4)n2)cc(C2(C(F)F)CC2)c1 (centres unmarked) [Example 30, 3-[3-tert-butyl-5-[1-(difluoromethyl)cyclopropyl]phenyl]-4-[2-[3-(5,6,7,8-tetrahydro-1,8-naphthyridin-2-yl)propyl]thiazol-4-yl]butanoic acid] | 6.59 | 6.57
Cn1nc(CC(CC(=O)O)c2cc(C(C)(C)C)cc(C(C)(C)CO)c2)cc1OCCc1ccc2c(n1)NCCC2 (centres unmarked) [Example 7, 3-[3-tert-butyl-5-(2-hydroxy-1,1-dimethyl-ethyl)phenyl]-4-[1-methyl-5-[2-(5,6,7,8-tetrahydro-1,8-naphthyridin-2-yl)ethoxy]pyrazol-3-yl]butanoic acid] | 7.57 | 6.52
COc1c(C(C)C)cc(C(CC(=O)O)Cc2csc(CCCc3ccc4c(n3)NCCC4)n2)cc1C(C)C (centres unmarked) [Example 26, 3-(3,5-diisopropyl-4-methoxy-phenyl)-4-[2-[3-(5,6,7,8-tetrahydro-1,8-naphthyridin-2-yl)propyl]thiazol-4-yl]butanoic acid] | 6.21 | 6.48
Cn1nc(CC(CC(=O)O)c2cc3c(c(C(C)(C)C)c2)OCCO3)cc1OCCc1ccc2c(n1)NCCC2 (centres unmarked) [Example 16, 3-(8-(tert-butyl)-2,3-dihydrobenzo[b][1,4]dioxin-6-yl)-4-(1-methyl −5-(2-(5,6,7,8-tetrahydro-1,8-naphthyridin-2-yl)ethoxy)-1H-pyrazol-3-yl) butanoic acid] | 9.15 | 7.72
Cn1nc(CC(CC(=O)O)c2cc(C(C)(C)C)cc(C(C)(C)C(F)(F)F)c2)cc1OCCc1ccc2c(n1)NCCC2 (centres unmarked) [Example 5, 3-(3-(tert-butyl)-5-(1,1,1-trifluoro-2-methylpropan-2-yl)phenyl)-4-(1-methyl-5-(2-(5,6,7,8-tetrahydro-1,8-naphthyridin-2-yl)ethoxy)-1H-pyrazol-3-yl) butanoic acid] | 6.80 | 6.34
COCC1(c2ccc(OC)c(C(CC(=O)O)Cc3cc(OCCc4ccc5c(n4)NCCC5)n(C)n3)c2)CCOCC1 (centres unmarked) [Example 45, 3-(2-methoxy-5-(4-(methoxymethyl)tetrahydro-2H-pyran-4-yl)phenyl)-4-(1-methyl-5-(2-(5,6,7,8-tetrahydro-1,8-naphthyridin-2-yl)ethoxy)-1H-pyrazol-3-yl)butanoic acid] | 5.92 | 5.39
COc1ccc(C2(C(F)F)CC2)cc1C(CC(=O)O)Cc1cc(OCCc2ccc3c(n2)NCCC3)n(C)n1 (centres unmarked) [Example 21, 3-[5-[1-(difluoromethyl)cyclopropyl]-2-methoxy-phenyl]-4-[1-methyl-5-[2-(5,6,7,8-tetrahydro-1,8-naphthyridin-2-yl)ethoxy]pyrazol-3-yl]butanoic acid] | 6.54 | 6.49
